ChEMBL document CHEMBL3393012, “Osteoprotective effect of geraniin against ovariectomy-induced bone loss in rats” (Bioorg Med Chem Lett, 2015)
Calls of active or inactive are those of the source. No cut-off for these calls is given here.

Key:
Type in all cases: functional, organism-based
[1] = tested on: Rattus norvegicus; test: Antiosteoporotic effect in OVX-induced Wistar rat osteoporosis model assessed as increase in serum calcium level at 20 to 40 mg/kg/day, ig administered for 2 weeks by colorimetric method relative to control
[2] = tested on: Rattus norvegicus; test: Antiosteoporotic effect in OVX-induced Wistar rat osteoporosis model assessed as increase in serum phosphorus level at 20 to 40 mg/kg/day, ig administered for 2 weeks by colorimetric method relative to control
[3] = tested on: Rattus norvegicus; test: Antiosteoporotic effect in OVX-induced Wistar rat osteoporosis model assessed as decrease in serum ALP level at 20 to 40 mg/kg/day, ig administered for 2 weeks by colorimetric method relative to control
[4] = tested on: Rattus norvegicus; test: Antiosteoporotic effect in OVX-induced Wistar rat osteoporosis model assessed as decrease in serum TRAP level at 20 to 40 mg/kg/day, ig administered for 2 weeks by colorimetric method relative to control
[5] = tested on: Rattus norvegicus; test: Antiosteoporotic effect in OVX-induced Wistar rat osteoporosis model assessed as increase in serum estradiol level at 40 mg/kg/day, ig administered for 2 weeks by RIA relative to control
[6] = tested on: Rattus norvegicus; test: Antiosteoporotic effect in OVX-induced Wistar rat osteoporosis model assessed as increase in serum calcitonin level at 40 mg/kg/day, ig administered for 2 weeks by RIA relative to control
[7] = tested on: Rattus norvegicus; test: Antiosteoporotic effect in OVX-induced Wistar rat osteoporosis model assessed as decrease in serum CTX level at 20 to 40 mg/kg/day, ig administered for 2 weeks by ELISA relative to control
[8] = tested on: Rattus norvegicus; test: Antiosteoporotic effect in OVX-induced Wistar rat osteoporosis model assessed as decrease in urinary DPD/Cr level at 20 to 40 mg/kg/day, ig administered for 2 weeks by ELISA relative to control; settings: Urine
[9] = tested on: Rattus norvegicus; test: Antiosteoporotic effect in OVX-induced Wistar rat osteoporosis model assessed as increase in femur wet weight at 40 mg/kg/day, ig administered for 2 weeks relative to control
[10] = tested on: Rattus norvegicus; test: Antiosteoporotic effect in OVX-induced Wistar rat osteoporosis model assessed as increase in femur dry weight at 40 mg/kg/day, ig administered for 2 weeks relative to control
[11] = tested on: Rattus norvegicus; test: Antiosteoporotic effect in OVX-induced Wistar rat osteoporosis model assessed as increase in femur ash weight at 40 mg/kg/day, ig administered for 2 weeks relative to control
[12] = tested on: Rattus norvegicus; test: Antiosteoporotic effect in OVX-induced Wistar rat osteoporosis model assessed as increase in bone calcium content at 40 mg/kg/day, ig administered for 2 weeks by flame atomic absorption spectroscopy relative to control
[13] = tested on: Rattus norvegicus; test: Antiosteoporotic effect in OVX-induced Wistar rat osteoporosis model assessed as increase in bone mineral density of left femur at 20 to 40 mg/kg/day, ig administered for 2 weeks by dual-energy X-ray absorptiometry relative to control
[14] = tested on: Rattus norvegicus; test: Antiosteoporotic effect in OVX-induced Wistar rat osteoporosis model assessed as increase in bone mineral content of left femur at 20 to 40 mg/kg/day, ig administered for 2 weeks by dual-energy X-ray absorptiometry relative to control
[15] = tested on: Rattus norvegicus; test: Antiosteoporotic effect in OVX-induced Wistar rat osteoporosis model assessed as increase in bone mineral density of third lumbar vertebra at 20 to 40 mg/kg/day, ig administered for 2 weeks by dual-energy X-ray absorptiometry relative to control
[16] = tested on: Rattus norvegicus; test: Antiosteoporotic effect in OVX-induced Wistar rat osteoporosis model assessed as increase in bone mineral content of third lumbar vertebra at 20 to 40 mg/kg/day, ig administered for 2 weeks by dual-energy X-ray absorptiometry relative to control
[17] = tested on: Rattus norvegicus; test: Antiosteoporotic effect in OVX-induced Wistar rat osteoporosis model assessed as increase in ultimate load of left femur at 20 to 40 mg/kg/day, ig administered for 2 weeks by […] relative to control
[18] = tested on: Rattus norvegicus; test: Antiosteoporotic effect in OVX-induced Wistar rat osteoporosis model assessed as increase in ultimate load of third lumbar vertebra at 20 to 40 mg/kg/day, ig administered for 2 weeks by […] relative to control
[19] = tested on: Rattus norvegicus; test: Antiosteoporotic effect in OVX-induced Wistar rat osteoporosis model assessed as increase in trabecular thickness in left femur at 20 to 40 mg/kg/day, ig administered for 2 weeks by histomorhological analysis relative to control
[20] = tested on: Rattus norvegicus; test: Antiosteoporotic effect in OVX-induced Wistar rat osteoporosis model assessed as increase in trabecular number in left femur at 20 to 40 mg/kg/day, ig administered for 2 weeks by histomorhological analysis relative to control
[21] = tested on: Rattus norvegicus; test: Antiosteoporotic effect in OVX-induced Wistar rat osteoporosis model assessed as decrease in trabecular separation in left femur at 20 to 40 mg/kg/day, ig administered for 2 weeks by histomorhological analysis relative to control
[22] = tested on: Rattus norvegicus; test: Antiosteoporotic effect in OVX-induced Wistar rat osteoporosis model assessed as increase in trabecular thickness in third lumbar vertebra at 20 to 40 mg/kg/day, ig administered for 2 weeks by histomorhological analysis relative to control
[23] = tested on: Rattus norvegicus; test: Antiosteoporotic effect in OVX-induced Wistar rat osteoporosis model assessed as increase in trabecular number in third lumbar vertebra at 20 to 40 mg/kg/day, ig administered for 2 weeks by histomorhological analysis relative to control
[24] = tested on: Rattus norvegicus; test: Antiosteoporotic effect in OVX-induced Wistar rat osteoporosis model assessed as decrease in trabecular separation in third lumbar vertebra at 20 to 40 mg/kg/day, ig administered for 2 weeks by histomorhological analysis relative to control
[25] = tested on: Rattus norvegicus; test: Antiosteoporotic effect in OVX-induced Wistar rat osteoporosis model assessed as increase in serum calcium level at 1 mg/kg/day, ig administered for 2 weeks by colorimetric method relative to control
[26] = tested on: Rattus norvegicus; test: Antiosteoporotic effect in OVX-induced Wistar rat osteoporosis model assessed as decrease in serum ALP level at 1 mg/kg/day, ig administered for 2 weeks by colorimetric method relative to control
[27] = tested on: Rattus norvegicus; test: Antiosteoporotic effect in OVX-induced Wistar rat osteoporosis model assessed as decrease in serum TRAP level at 1 mg/kg/day, ig administered for 2 weeks by colorimetric method relative to control
[28] = tested on: Rattus norvegicus; test: Antiosteoporotic effect in OVX-induced Wistar rat osteoporosis model assessed as increase in serum estradiol level at 1 mg/kg/day, ig administered for 2 weeks by RIA relative to control
[29] = tested on: Rattus norvegicus; test: Antiosteoporotic effect in OVX-induced Wistar rat osteoporosis model assessed as increase in serum calcitonin level at 1 mg/kg/day, ig administered for 2 weeks by RIA relative to control
[30] = tested on: Rattus norvegicus; test: Antiosteoporotic effect in OVX-induced Wistar rat osteoporosis model assessed as decrease in serum CTX level at 1 mg/kg/day, ig administered for 2 weeks by ELISA relative to control
[31] = tested on: Rattus norvegicus; test: Antiosteoporotic effect in OVX-induced Wistar rat osteoporosis model assessed as decrease in urinary DPD/Cr level at 1 mg/kg/day, ig administered for 2 weeks by ELISA relative to control; settings: Urine
[32] = tested on: Rattus norvegicus; test: Antiosteoporotic effect in OVX-induced Wistar rat osteoporosis model assessed as increase in femur wet weight at 1 mg/kg/day, ig administered for 2 weeks relative to control
[33] = tested on: Rattus norvegicus; test: Antiosteoporotic effect in OVX-induced Wistar rat osteoporosis model assessed as increase in femur dry weight at 1 mg/kg/day, ig administered for 2 weeks relative to control
[34] = tested on: Rattus norvegicus; test: Antiosteoporotic effect in OVX-induced Wistar rat osteoporosis model assessed as increase in femur ash weight at 1 mg/kg/day, ig administered for 2 weeks relative to control
[35] = tested on: Rattus norvegicus; test: Antiosteoporotic effect in OVX-induced Wistar rat osteoporosis model assessed as increase in bone calcium content at 1 mg/kg/day, ig administered for 2 weeks by flame atomic absorption spectroscopy relative to control
[36] = tested on: Rattus norvegicus; test: Antiosteoporotic effect in OVX-induced Wistar rat osteoporosis model assessed as increase in bone mineral density of left femur at 1 mg/kg/day, ig administered for 2 weeks by dual-energy X-ray absorptiometry relative to control
[37] = tested on: Rattus norvegicus; test: Antiosteoporotic effect in OVX-induced Wistar rat osteoporosis model assessed as increase in bone mineral content of left femur at 1 mg/kg/day, ig administered for 2 weeks by dual-energy X-ray absorptiometry relative to control
[38] = tested on: Rattus norvegicus; test: Antiosteoporotic effect in OVX-induced Wistar rat osteoporosis model assessed as increase in bone mineral density of third lumbar vertebra at 1 mg/kg/day, ig administered for 2 weeks by dual-energy X-ray absorptiometry relative to control
[39] = tested on: Rattus norvegicus; test: Antiosteoporotic effect in OVX-induced Wistar rat osteoporosis model assessed as increase in bone mineral content of third lumbar vertebra at 1 mg/kg/day, ig administered for 2 weeks by dual-energy X-ray absorptiometry relative to control
[40] = tested on: Rattus norvegicus; test: Antiosteoporotic effect in OVX-induced Wistar rat osteoporosis model assessed as increase in ultimate load of left femur at 1 mg/kg/day, ig administered for 2 weeks by […] relative to control
[41] = tested on: Rattus norvegicus; test: Antiosteoporotic effect in OVX-induced Wistar rat osteoporosis model assessed as increase in ultimate load of third lumbar vertebra at 1 mg/kg/day, ig administered for 2 weeks by […] relative to control
[42] = tested on: Rattus norvegicus; test: Antiosteoporotic effect in OVX-induced Wistar rat osteoporosis model assessed as increase in trabecular thickness in left femur at 1 mg/kg/day, ig administered for 2 weeks by histomorhological analysis relative to control
[43] = tested on: Rattus norvegicus; test: Antiosteoporotic effect in OVX-induced Wistar rat osteoporosis model assessed as increase in trabecular number in left femur at 1 mg/kg/day, ig administered for 2 weeks by histomorhological analysis relative to control
[44] = tested on: Rattus norvegicus; test: Antiosteoporotic effect in OVX-induced Wistar rat osteoporosis model assessed as decrease in trabecular separation in left femur at 1 mg/kg/day, ig administered for 2 weeks by histomorhological analysis relative to control

O=C1O[C@H]2[C@@H]3OC(=O)c4cc(O)c(O)c(O)c4-c4c(cc(O)c(O)c4O)C(=O)OC[C@H]2O[C@@H](OC(=O)c2cc(O)c(O)c(O)c2)[C@@H]3OC(=O)c2cc(O)c(O)c3c2[C@@H]2C1=CC(=O)[C@](O)(O3)C2(O)O
Activity [1]: Active
Activity [2]: inactive
Activity [3]: Active
Activity [4]: Active
Activity [5]: Active
Activity [6]: Active
Activity [7]: Active
Activity [8]: Active
Activity [9]: Active
Activity [10]: Active
Activity [11]: Active
Activity [12]: Active
Activity [13]: Active
Activity [14]: Active
Activity [15]: Active
Activity [16]: Active
Activity [17]: Active
Activity [18]: Active
Activity [19]: Active
Activity [20]: Active
Activity [21]: Active
Activity [22]: Active
Activity [23]: Active
Activity [24]: inactive

C#C[C@@]1(O)[C@H](O)C[C@H]2[C@@H]3CCc4cc(OC5CCCC5)ccc4[C@H]3CC[C@@]21C
Activity [25]: Active
Activity [26]: Active
Activity [27]: Active
Activity [28]: Active
Activity [29]: Active
Activity [30]: Active
Activity [31]: Active
Activity [32]: Active
Activity [33]: Active
Activity [34]: Active
Activity [35]: Active
Activity [36]: Active
Activity [37]: Active
Activity [38]: Active
Activity [39]: Active
Activity [40]: Active
Activity [41]: Active
Activity [42]: Active
Activity [43]: Active
Activity [44]: Active
